Where two headings read alike, the source gives them in different places.
Columns and labels:
Klebsiella pneumoniae = assay: MIC, broth microdilution, standard strains and Japanese clinical isolates (Example 5, Table 4); type: cell-based
Enterobacterales = assay: MIC, broth microdilution, CDC/FDA Antibiotic Resistance Isolate Bank (Example 7, Tables 8, 11, 12); type: cell-based; settings: read-out: MIC
CRE and CPE strains = assay: MIC, broth microdilution, standard strains and Japanese clinical isolates (Example 5, Table 4 continued; organism of each KUB strain not given); type: cell-based
A. baumannii = assay: MIC, broth microdilution, CDC/FDA Antibiotic Resistance Isolate Bank (Example 7, Tables 9, 13, 14); type: cell-based, Acinetobacter baumannii; settings: for MIC: Acinetobacter baumannii, read-out: MIC
[1] = KUB3633 Klebsiella pneumoniae Clinical isolate, IMP-6
[2] = KUB3634 Klebsiella pneumoniae Clinical isolate, IMP-6
[3] = strain KUB3149, carbapenemase gene NDM-1, read-out: MIC
[4] = strain KUB3150, carbapenemase gene OXA-48, read-out: MIC
[5] = strain KUB3151, carbapenemase gene IMP-1, read-out: MIC
[6] = strain KUB3158, carbapenemase gene OXA-48
[7] = MIC distribution, metallo-β-lactamase-producing A. baumannii, inhibitor µg/mL in parentheses

C[C@H]1[C@H](NC(=O)/C(=N\OC(C)(C)C(=O)O)c2csc(N)n2)C(=O)N1S(=O)(=O)O [Aztreonam, aztreonam]
0.5 µg/mL: MIC (Enterobacterales; Escherichia coli, KUB No. 5581, AR Bank # 84) | MIC (Enterobacterales; Escherichia coli, KUB No. 5646, AR Bank # 149)
1: Number of isolates at MIC 32 µg/mL (A. baumannii; [7])
3: Number of isolates at MIC >64 µg/mL (A. baumannii; [7])
2 µg/mL: MIC (Enterobacterales; Enterobacter cloacae, Enterobacter cloacae group, KUB No. 5629, AR Bank # 132) | MIC (Enterobacterales; Serratia marcescens, Serratia marcescens KUB No. 5825, AR Bank #520)
16 µg/mL: MIC (Klebsiella pneumoniae; [2]) | MIC (Enterobacterales; Escherichia coli, KUB No. 5582, AR Bank # 85) | MIC (Enterobacterales; Escherichia coli, KUB No. 5586, AR Bank # 89) | MIC (Enterobacterales; Escherichia coli, KUB No. 5767, AR Bank # 371) | MIC (Enterobacterales; Escherichia coli, KUB No. 5769, AR Bank # 373) | MIC (Enterobacterales; Escherichia coli, KUB No. 5770, AR Bank # 374) | MIC (Enterobacterales; Klebsiella aerogenes, Enterobacter aerogenes, KUB No. 5559, AR Bank # 62) | MIC (Enterobacterales; Klebsiella aerogenes, Enterobacter aerogenes, KUB No. 5777, AR Bank # 431) | MIC (Enterobacterales; Serratia marcescens, KUB No. 5618, AR Bank # 121) | MIC (Enterobacterales; Serratia marcescens, KUB No. 5619, AR Bank # 122) | MIC (Enterobacterales; Serratia marcescens, KUB No. 5620, AR Bank # 123) | MIC (Enterobacterales; Serratia marcescens, KUB No. 5627, AR Bank # 130) | MIC (Enterobacterales; Serratia marcescens, KUB No. 5628, AR Bank # 131) | MIC (CRE and CPE strains; strain KUB3164, carbapenemase gene IMP-6)
0.12 µg/mL: MIC (Enterobacterales; Escherichia coli, Escherichia coli KUB No. 5796, AR Bank #452) | MIC (Enterobacterales; Escherichia coli, KUB No. 5774, AR Bank # 378) | MIC (Enterobacterales; Klebsiella aerogenes, Enterobacter aerogenes, KUB No. 5571, AR Bank # 74) | MIC (Enterobacterales; Klebsiella pneumoniae, KUB No. 5657, AR Bank # 160) | MIC (CRE and CPE strains; [6]) | MIC (CRE and CPE strains; strain KUB3163, carbapenemase gene IMP-1)
0.06 µg/mL: MIC (Enterobacterales; Escherichia coli, KUB No. 5574, AR Bank # 77) | MIC (Enterobacterales; Escherichia coli, KUB No. 5764, AR Bank # 368) | MIC (Enterobacterales; Klebsiella pneumoniae, KUB No. 5531, AR Bank# 34) | MIC (CRE and CPE strains; strain KUB3628, carbapenemase gene IMP-1)
8 µg/mL: MIC (Klebsiella pneumoniae; [1]) | MIC (Enterobacterales; Escherichia coli, KUB No. 5555, AR Bank# 58) | MIC (Enterobacterales; Escherichia coli, KUB No. 5578, AR Bank # 81) | MIC (Enterobacterales; Raoultella ornithinolvtica, KUB No. 5631, AR Bank # 134) | MIC (Enterobacterales; Serratia marcescens, KUB No. 5621, AR Bank # 124) | MIC (CRE and CPE strains; [3]) | MIC (CRE and CPE strains; [4])
0.25 µg/mL: MIC (Enterobacterales; Klebsiella pneumoniae, KUB No. 5573, AR Bank # 76) | MIC (Enterobacterales; Proteus mirabilis, KUB No. 5556, AR Bank# 59) | MIC (Enterobacterales; Proteus mirabilis, KUB No. 5775, AR Bank # 379) | MIC (CRE and CPE strains; [5])
1 µg/mL: MIC (Enterobacterales; Enterobacter cloacae, Enterobacter cloacae KUB No. 5807, AR Bank #501) | MIC (Enterobacterales; Escherichia coli, Escherichia coli KUB No. 5803, AR Bank #861)
4 µg/mL: MIC (Enterobacterales; Enterobacter cloacae, KUB No. 5570, AR Bank # 73) | MIC (Enterobacterales; Escherichia coli, KUB No. 5564, AR Bank # 67) | MIC (Enterobacterales; Escherichia coli, KUB No. 5566, AR Bank # 69) | MIC (Enterobacterales; Escherichia coli, KUB No. 5583, AR Bank # 86) | MIC (Enterobacterales; Klebsiella oxytoca, KUB No. 5644, AR Bank # 147) | MIC (Enterobacterales; Proteus mirabilis, KUB No. 5652, AR Bank # 155) | MIC (Enterobacterales; Proteus mirabilis, KUB No. 5773, AR Bank # 377) | MIC (CRE and CPE strains; strain KUB3166, carbapenemase gene IMP-1)
32 µg/mL: MIC (Enterobacterales; Enterobacter cloacae, KUB No. 5529, AR Bank# 32) | MIC (Enterobacterales; Enterobacter cloacae, KUB No. 5557, AR Bank# 60) | MIC (Enterobacterales; Enterobacter cloacae, KUB No. 5778, AR Bank # 432) | MIC (Enterobacterales; Escherichia coli, KUB No. 5552, AR Bank# 55) | MIC (Enterobacterales; Escherichia coli, KUB No. 5615, AR Bank # 118) | MIC (Enterobacterales; Escherichia coli, KUB No. 5647, AR Bank # 150) | MIC (Enterobacterales; Escherichia coli, KUB No. 5648, AR Bank # 151) | MIC (Enterobacterales; Escherichia coli, KUB No. 5779, AR Bank # 433) | MIC (Enterobacterales; Escherichia, KUB No. 57, AR Bank # 436 (row cut off)) | MIC (Enterobacterales; Klebsiella aerogenes, Enterobacter aerogenes, KUB No. 5658, AR Bank # 161) | MIC (Enterobacterales; Klebsiella oxytoca, KUB No. 5771, AR Bank # 375) | MIC (Enterobacterales; Klebsiella pneumoniae, KUB No. 5623, AR Bank # 126) | MIC (Enterobacterales; Klebsiella pneumoniae, Klebsiella pneumoniae KUB No. 5809, AR Bank #504) | MIC (Enterobacterales; Morganella morganii, Morganella morganii KUB No. 5824, AR Bank #519) | MIC (Enterobacterales; Serratia marcescens, KUB No. 5588, AR Bank # 91) | MIC (A. baumannii; A. baumannii KUB No. 5585, AR Bank #88, OXA-64, NDM-1) | MIC (A. baumannii; A. baumannii KUB No. 5714, AR Bank #281, OXA-82) | MIC (A. baumannii; KUB No. 5719, AR Bank #286) | MIC (A. baumannii; KUB No. 5720, AR Bank #287) | MIC (A. baumannii; KUB No. 5727, AR Bank #294)
≤ 0.03 µg/mL: MIC (Enterobacterales; Proteus mirabilis, KUB No. 5653, AR Bank # 156) | MIC (Enterobacterales; Proteus mirabilis, KUB No. 5656, AR Bank # 159) | MIC (Enterobacterales; Providencia rettgeri, KUB No. 5579, AR Bank # 82) | MIC (CRE and CPE strains; strain KUB3165, carbapenemase gene IMP-34)

CC(C)(O/N=C(\C(=O)N[C@@H]1C(=O)N2C(C(=O)[O-])=C(C[n+]3ccccc3)CS[C@H]12)c1csc(N)n1)C(=O)O [CAZ, ceftazidime]
32 µg/mL: MIC (Klebsiella pneumoniae; [1]) | MIC (CRE and CPE strains; strain KUB3152, carbapenemase gene KPC-2, read-out: MIC) | MIC (CRE and CPE strains; strain KUB3154, carbapenemase gene KPC-2, read-out: MIC)
16 µg/mL: MIC (Klebsiella pneumoniae; ATCCBAA1904, KUB3999 Klebsiella pneumoniae ATCC BAA-1904, KPC-3) | MIC (Klebsiella pneumoniae; [2])
> 32 µg/mL: MIC (Klebsiella pneumoniae; ATCCBAA1898, KUB3996 Klebsiella pneumoniae ATCC BAA-1898, KPC-2) | MIC (Klebsiella pneumoniae; ATCCBAA1899, KUB3997 Klebsiella pneumoniae ATCC BAA-1899, KPC-2) | MIC (Klebsiella pneumoniae; ATCCBAA1900, KUB3998 Klebsiella pneumoniae ATCC BAA-1900, KPC-3) | MIC (Klebsiella pneumoniae; ATCCBAA2078, KUB4000 Klebsiella pneumoniae ATCC BAA-2078, KPC-3) | MIC (Klebsiella pneumoniae; ATCCBAA2146, KUB4011 Klebsiella pneumoniae ATCC BAA-2146, NDM-1) | MIC (Klebsiella pneumoniae; ATCCBAA2342, KUB4003 Klebsiella pneumoniae ATCC BAA-2342, KPC-3) | MIC (Klebsiella pneumoniae; ATCCBAA2343, KUB4004 Klebsiella pneumoniae ATCC BAA-2343, KPC-3) | MIC (Klebsiella pneumoniae; ATCCBAA2472, KUB4008 Klebsiella pneumoniae subsp. Pneumoniae ATCC BAA-2472, NDM-1) | MIC (Klebsiella pneumoniae; ATCCBAA2473, KUB4009 Klebsiella pneumoniae ATCC BAA-2473, NDM-1) | MIC (Klebsiella pneumoniae; KUB3631 Klebsiella pneumoniae Clinical isolate, IMP-1) | MIC (Klebsiella pneumoniae; KUB3635 Klebsiella pneumoniae Clinical isolate, IMP-1) | MIC (CRE and CPE strains; strain KUB3148, carbapenemase gene KPC-3, read-out: MIC) | MIC (CRE and CPE strains; [3]) | MIC (CRE and CPE strains; [5]) | MIC (CRE and CPE strains; strain KUB3153, carbapenemase gene KPC-3, read-out: MIC)
8 µg/mL: MIC (CRE and CPE strains; strain KUB3169, carbapenemase gene Unidentified) | MIC (CRE and CPE strains; strain KUB3170, carbapenemase gene Unidentified) | MIC (CRE and CPE strains; strain KUB3171, carbapenemase gene -)
1 µg/mL: MIC (CRE and CPE strains; [4])
0.5 µg/mL: MIC (CRE and CPE strains; [6])
